Source: ChEMBL document CHEMBL1201862, “PubChem BioAssay data set” (2004)
Values belong to the molecule of their own block, whether it stands above or below them. Calls of active or inactive are those of the source.

How the values were obtained:
[1] = target: Cytochrome P450 2C19 (Homo sapiens, UniProt P33261); test: Cytochrome panel assay with activity outcomes. Panel member name: p450-cyp2c19 Compounds with AC50 equal or less than 10 uM are considered active; assay type: functional; conditions: read-out: AC50
[2] = target: Cytochrome P450 3A4 (Homo sapiens, UniProt P08684);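 further: CYP3A4 tested as one member of a cytochrome P450 panel screen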
[3] = target: Cytochrome P450 2C9 (Homo sapiens, UniProt P11712)
[4] = target: T1, Cytochrome P450 1A2 (Homo sapiens, UniProt P05177)
T1 sequence (P05177 whole entry): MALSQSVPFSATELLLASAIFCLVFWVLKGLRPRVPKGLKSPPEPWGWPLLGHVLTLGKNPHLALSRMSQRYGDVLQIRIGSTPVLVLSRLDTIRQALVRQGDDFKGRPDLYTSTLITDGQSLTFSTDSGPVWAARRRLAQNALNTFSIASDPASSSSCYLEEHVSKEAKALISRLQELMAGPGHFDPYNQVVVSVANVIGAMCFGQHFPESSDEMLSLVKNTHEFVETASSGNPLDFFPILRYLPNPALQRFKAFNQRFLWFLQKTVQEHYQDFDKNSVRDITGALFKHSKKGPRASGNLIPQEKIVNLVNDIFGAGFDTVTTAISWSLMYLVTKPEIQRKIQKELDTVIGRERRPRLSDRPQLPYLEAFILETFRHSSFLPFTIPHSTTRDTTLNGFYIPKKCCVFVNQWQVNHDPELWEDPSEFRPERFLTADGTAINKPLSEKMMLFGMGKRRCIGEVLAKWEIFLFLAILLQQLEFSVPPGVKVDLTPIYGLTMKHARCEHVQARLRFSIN

[5] = target: T2, Hexokinase HKDC1 (Homo sapiens, UniProt Q2TB90); test: HKDC1 hexokinase inhibitors, dose response, biochemical, W721R variant (AID 504729); assay type: functional
T2 sequence (Q2TB90 whole entry): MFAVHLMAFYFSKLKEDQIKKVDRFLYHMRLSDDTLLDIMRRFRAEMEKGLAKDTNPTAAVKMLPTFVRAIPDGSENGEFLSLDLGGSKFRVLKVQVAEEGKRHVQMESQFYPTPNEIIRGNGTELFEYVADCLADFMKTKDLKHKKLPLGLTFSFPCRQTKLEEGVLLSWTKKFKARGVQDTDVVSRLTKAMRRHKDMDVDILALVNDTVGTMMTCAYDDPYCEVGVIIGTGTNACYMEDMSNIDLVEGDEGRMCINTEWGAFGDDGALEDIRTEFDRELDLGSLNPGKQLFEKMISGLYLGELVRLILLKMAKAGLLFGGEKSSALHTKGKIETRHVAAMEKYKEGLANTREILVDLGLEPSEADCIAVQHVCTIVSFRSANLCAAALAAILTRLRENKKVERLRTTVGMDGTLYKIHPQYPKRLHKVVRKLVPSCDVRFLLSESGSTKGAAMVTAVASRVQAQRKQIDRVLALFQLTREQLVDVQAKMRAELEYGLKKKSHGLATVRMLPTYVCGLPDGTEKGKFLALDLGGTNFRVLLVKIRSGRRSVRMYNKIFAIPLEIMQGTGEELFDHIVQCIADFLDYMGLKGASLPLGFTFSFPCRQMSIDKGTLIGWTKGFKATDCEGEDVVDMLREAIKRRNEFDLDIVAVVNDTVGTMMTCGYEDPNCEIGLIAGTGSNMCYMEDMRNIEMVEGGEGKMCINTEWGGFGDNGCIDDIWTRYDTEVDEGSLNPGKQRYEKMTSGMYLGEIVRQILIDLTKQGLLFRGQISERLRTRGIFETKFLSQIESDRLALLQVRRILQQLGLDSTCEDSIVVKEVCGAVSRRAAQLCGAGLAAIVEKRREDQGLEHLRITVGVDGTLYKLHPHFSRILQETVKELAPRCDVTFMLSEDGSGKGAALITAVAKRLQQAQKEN

[6] = target: Genome polyprotein (dengue virus type 2, UniProt P29990); test: Dengue-2 NS5 methyltransferase inhibitors, primary screen, biochemical, confirmation dose response (AID 588689); assay type: functional
[7] = target: Luciferin 4-monooxygenase (Photinus pyralis, UniProt P08659); test: firefly luciferase enzyme inhibitors, dose response, biochemical, luminescence (AID 1891)
[8] = target: T3, Fatty acid synthase (Homo sapiens, UniProt P49327); test: FAS thioesterase domain inhibitors, dose response, biochemical, endpoint fluorescence intensity, uHTS hits (AID 624327); assay type: functional;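 further: fluorescence from hydrolysis of an O-methyl fluorescein acyl ester substrate by the enzyme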
[9] = target: T3, Fatty acid synthase; test: FAS thioesterase domain inhibitors, dose response, biochemical, kinetic fluorescence intensity (AID 624326); assay type: functional;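 further: rate of fluorescence rise from hydrolysis of a fluorogenic O-methyl fluorescein ester substrate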
[10] = Luminescence Cell-Based Dose Confirmation HTS to Identify Inhibitors of Platelet Dense Granule Release. [Related pubchem assays: 1663 (Primary HTS), 1678 (Summary of Project)]; assay type: functional
[11] = target: Mitogen-activated protein kinase 10 (Homo sapiens, UniProt P53779); test: Dose response biochemical screening assay for inhibitors of c-Jun N-Terminal Kinase 3 (JNK3). [Related pubchem assays: 746 ]
[12] = Shn3 3'UTR reporter inhibitors, dose response, cell-based, Clone20 osteoblasts, firefly luciferase, cherry-picked (AID 624132); assay type: functional;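 further: firefly luciferase luminescence from reporter carrying the Shn3 3'UTR in osteoblasts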
[13] = HepG2 cell cytotoxicity, dose response, cytotoxicity control for Shn3 inhibitor project, CellTiter-Glo, cherry-picked (AID 624134); assay type: functional, cell-based
[14] = system: INS1; test: beta cell apoptosis inhibitors, cytokine rescue, dose response, luminescence, retest (AID 449756); assay type: functional, cell-based; conditions: Rattus norvegicus;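 further: cell death triggered by IL-1 beta plus TNF-alpha plus IFN-gamma mixture; protective hits raise ATP signal compared with cytokine alone wells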
[15] = control 3'UTR Renilla luciferase suppression, dose response, counter-screen for Shn3 inhibitor project, cell-based, Clone20-Shn3RL, cherry-picked (AID 624133); assay type: functional
[16] = target: Cytochrome P450 2D6 (Homo sapiens, UniProt P10635);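 further: CYP2D6 member of a cytochrome P450 panel assay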
[17] = target: FAD-linked sulfhydryl oxidase ALR (Homo sapiens, UniProt P55789); test: inhibitors of human ALR sulfhydryl oxidase, dose response, biochemical, H2O2 detection, luminescence, cherry-pick (AID 493248)
[18] = target: Large T antigen (Simian virus 40, UniProt P03070); assay type: functional, Betapolyomavirus macacae;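 further: Confirmatory-stage PubChem screen for compounds that inhibit SV40 T antigen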

T3 sequence (P49327 whole entry, the tested form may be a part): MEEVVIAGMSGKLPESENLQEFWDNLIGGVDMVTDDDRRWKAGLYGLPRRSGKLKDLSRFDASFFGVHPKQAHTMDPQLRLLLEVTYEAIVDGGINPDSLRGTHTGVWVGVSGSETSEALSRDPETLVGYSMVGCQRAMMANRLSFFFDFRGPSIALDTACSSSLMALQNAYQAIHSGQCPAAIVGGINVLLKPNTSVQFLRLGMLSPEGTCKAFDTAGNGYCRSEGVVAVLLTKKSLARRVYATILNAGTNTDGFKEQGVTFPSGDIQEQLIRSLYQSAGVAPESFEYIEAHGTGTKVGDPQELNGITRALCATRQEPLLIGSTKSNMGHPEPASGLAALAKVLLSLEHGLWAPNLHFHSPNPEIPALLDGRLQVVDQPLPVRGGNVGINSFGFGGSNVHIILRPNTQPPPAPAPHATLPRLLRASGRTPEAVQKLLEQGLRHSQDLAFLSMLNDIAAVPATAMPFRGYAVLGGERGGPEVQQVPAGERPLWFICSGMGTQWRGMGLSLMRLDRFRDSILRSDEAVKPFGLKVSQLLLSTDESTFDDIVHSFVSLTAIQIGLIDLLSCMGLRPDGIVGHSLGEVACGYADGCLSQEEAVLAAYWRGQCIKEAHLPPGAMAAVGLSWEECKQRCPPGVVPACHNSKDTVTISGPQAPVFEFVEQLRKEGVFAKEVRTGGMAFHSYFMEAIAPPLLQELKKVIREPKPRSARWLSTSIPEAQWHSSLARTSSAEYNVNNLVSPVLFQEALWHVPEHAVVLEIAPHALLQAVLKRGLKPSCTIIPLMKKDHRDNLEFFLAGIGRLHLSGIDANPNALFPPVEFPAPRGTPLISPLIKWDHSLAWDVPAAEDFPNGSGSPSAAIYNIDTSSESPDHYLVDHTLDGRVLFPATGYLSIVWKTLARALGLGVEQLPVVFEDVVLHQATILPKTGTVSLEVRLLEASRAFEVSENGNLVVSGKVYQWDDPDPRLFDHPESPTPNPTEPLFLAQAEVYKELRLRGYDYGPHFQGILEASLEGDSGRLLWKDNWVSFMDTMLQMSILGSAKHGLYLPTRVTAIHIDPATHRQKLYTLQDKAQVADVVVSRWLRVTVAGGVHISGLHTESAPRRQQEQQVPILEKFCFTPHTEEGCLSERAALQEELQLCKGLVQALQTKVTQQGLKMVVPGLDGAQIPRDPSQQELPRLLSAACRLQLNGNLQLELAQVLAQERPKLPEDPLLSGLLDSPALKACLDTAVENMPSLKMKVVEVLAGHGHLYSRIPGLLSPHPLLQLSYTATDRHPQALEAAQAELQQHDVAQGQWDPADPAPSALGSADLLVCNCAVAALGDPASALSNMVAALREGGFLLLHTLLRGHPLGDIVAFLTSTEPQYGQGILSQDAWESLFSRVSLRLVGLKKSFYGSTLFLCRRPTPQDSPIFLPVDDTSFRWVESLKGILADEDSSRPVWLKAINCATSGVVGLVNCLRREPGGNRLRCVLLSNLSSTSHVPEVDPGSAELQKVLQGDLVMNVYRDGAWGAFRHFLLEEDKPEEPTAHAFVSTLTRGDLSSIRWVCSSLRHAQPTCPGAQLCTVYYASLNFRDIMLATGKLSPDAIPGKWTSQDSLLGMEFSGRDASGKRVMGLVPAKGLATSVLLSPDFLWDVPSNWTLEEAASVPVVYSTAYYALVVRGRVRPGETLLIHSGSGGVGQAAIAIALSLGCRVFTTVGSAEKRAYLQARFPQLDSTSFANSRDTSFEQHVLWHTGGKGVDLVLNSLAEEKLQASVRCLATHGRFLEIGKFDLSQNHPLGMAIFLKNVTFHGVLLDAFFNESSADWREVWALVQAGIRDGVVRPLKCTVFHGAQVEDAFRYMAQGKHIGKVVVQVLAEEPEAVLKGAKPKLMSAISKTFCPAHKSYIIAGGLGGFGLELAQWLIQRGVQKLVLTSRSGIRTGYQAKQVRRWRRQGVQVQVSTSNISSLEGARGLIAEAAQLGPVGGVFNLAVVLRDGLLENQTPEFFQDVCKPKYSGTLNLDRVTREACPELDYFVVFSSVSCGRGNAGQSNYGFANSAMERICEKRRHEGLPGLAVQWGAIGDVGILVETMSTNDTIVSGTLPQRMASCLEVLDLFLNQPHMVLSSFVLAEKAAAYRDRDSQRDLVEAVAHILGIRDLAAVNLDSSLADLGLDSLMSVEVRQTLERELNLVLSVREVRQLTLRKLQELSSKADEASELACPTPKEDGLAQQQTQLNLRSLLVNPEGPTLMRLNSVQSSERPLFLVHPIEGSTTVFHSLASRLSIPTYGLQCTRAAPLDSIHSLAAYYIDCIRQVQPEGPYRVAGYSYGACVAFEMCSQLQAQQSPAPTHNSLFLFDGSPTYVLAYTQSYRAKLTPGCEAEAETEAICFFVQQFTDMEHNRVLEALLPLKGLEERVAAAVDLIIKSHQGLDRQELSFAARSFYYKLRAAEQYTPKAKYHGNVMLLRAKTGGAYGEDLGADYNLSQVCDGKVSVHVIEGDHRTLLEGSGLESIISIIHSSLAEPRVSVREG
Sequence of Cytochrome P450 2C9 (P11712 whole entry): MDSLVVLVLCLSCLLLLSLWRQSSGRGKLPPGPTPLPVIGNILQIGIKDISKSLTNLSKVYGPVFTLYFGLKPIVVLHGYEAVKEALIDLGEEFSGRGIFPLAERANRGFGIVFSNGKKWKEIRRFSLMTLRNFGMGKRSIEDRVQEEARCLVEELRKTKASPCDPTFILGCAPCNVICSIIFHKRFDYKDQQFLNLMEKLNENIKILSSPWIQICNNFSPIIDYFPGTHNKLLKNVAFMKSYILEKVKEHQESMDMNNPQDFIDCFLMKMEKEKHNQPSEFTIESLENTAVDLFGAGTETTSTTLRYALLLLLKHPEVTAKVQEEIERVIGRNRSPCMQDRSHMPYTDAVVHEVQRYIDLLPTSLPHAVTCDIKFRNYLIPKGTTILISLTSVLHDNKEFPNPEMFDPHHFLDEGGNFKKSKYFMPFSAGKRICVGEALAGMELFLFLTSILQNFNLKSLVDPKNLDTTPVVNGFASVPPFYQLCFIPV
Sequence of Mitogen-activated protein kinase 10 (P53779 whole entry): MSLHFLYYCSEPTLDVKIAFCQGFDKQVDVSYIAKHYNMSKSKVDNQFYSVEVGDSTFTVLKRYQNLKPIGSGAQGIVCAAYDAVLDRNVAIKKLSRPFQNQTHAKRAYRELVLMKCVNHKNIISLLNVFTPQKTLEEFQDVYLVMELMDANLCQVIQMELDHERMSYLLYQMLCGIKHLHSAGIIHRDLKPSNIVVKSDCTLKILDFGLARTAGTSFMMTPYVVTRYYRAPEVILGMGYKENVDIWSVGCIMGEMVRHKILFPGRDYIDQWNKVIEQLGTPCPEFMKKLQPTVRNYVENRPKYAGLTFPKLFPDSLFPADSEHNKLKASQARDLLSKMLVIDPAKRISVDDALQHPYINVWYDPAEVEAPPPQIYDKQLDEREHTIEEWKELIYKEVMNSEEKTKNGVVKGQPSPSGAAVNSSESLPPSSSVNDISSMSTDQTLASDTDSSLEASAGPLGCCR
Sequence of Cytochrome P450 3A4 (P08684 whole entry): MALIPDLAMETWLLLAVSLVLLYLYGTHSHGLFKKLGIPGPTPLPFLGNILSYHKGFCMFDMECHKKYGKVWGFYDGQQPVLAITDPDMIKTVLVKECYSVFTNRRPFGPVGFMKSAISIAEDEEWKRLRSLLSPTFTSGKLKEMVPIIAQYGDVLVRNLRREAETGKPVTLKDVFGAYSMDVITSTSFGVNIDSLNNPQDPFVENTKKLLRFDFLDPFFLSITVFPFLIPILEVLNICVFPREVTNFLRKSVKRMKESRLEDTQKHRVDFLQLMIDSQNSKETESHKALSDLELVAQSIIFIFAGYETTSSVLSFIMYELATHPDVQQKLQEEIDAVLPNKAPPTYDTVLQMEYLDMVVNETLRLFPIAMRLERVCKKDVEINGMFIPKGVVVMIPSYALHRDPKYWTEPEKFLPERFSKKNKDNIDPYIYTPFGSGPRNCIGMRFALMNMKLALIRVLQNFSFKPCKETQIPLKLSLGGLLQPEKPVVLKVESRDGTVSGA
Sequence of Genome polyprotein (P29990 2492-3391 limits assumed): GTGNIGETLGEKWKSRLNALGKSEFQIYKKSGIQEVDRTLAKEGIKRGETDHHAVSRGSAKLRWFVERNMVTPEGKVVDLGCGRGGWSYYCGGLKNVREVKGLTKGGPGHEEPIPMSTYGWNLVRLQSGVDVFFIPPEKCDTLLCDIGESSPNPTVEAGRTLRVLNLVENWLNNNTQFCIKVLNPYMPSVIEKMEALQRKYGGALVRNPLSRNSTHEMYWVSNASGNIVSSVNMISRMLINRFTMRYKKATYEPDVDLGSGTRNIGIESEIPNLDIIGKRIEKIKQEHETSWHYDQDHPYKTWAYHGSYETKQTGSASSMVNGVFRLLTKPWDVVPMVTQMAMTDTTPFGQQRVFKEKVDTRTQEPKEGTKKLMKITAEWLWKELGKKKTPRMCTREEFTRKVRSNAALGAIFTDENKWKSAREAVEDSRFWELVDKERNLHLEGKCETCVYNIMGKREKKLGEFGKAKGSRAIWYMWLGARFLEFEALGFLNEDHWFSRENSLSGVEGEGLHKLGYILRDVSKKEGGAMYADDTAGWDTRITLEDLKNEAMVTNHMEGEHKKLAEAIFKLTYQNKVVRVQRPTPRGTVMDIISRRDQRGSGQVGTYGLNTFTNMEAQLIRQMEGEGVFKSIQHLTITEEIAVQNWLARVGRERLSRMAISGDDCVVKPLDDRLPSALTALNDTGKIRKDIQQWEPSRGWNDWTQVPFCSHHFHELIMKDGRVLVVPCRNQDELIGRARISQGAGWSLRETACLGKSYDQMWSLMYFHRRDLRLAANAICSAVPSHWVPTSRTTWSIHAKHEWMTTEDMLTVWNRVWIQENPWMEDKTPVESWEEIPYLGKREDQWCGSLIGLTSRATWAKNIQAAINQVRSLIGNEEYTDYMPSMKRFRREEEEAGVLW
Sequence of FAD-linked sulfhydryl oxidase ALR (P55789 whole entry): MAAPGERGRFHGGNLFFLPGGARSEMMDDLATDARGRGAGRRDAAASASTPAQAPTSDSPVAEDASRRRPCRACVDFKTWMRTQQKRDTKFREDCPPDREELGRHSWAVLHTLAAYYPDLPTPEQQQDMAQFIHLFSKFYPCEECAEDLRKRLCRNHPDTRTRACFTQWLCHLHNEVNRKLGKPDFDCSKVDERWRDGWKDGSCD

- IC50 [5]: 6.43 µM (active)
Compound: CCCc1nc2c(c(=O)c3ccccc3n2C)c(=O)n1-c1ccc(F)cc1

- IC50 [11]: 55.2 µM (not active)
Compound: COc1cccc(OCC(=O)Nc2ccccc2C(N)=O)c1

- AC50 [16]: 25.1 µM (inconclusive)
- AC50 [2]: 25.1 µM (inconclusive)
- AC50 [3]: inconclusive
- AC50 [4]: 17.8 µM (inconclusive)
Compound: Cc1ccc(S(=O)(=O)NCCC(=O)NCc2ccccc2)cc1

- IC50 [11]: 62.7 µM (not active)
Compound: Cc1cc(NC(=O)COC(=O)c2[nH]nc3ccccc23)no1

The next lines start with the molecule.

Compound: Cc1ccc(NC(=O)c2sc3ncnc(O)c3c2C)c(C)c1
- AC50 [1]: 14.1 µM (inconclusive)
- AC50 [2]: 15.8 µM (inconclusive)
- AC50 [3]: inconclusive
- AC50 [4]: 14.1 µM (inconclusive)

Compound: O=C1c2ccccc2C(=O)N1OS(=O)(=O)c1ccc(F)cc1
- IC50 [6]: > 100 µM (active)
- EC50 [7]: > 112 µM (not active)
- IC50 [8]: 5.85 µM (active)
- IC50 [9]: 3.91 µM (active)
- EC50 [10]: > 56.1 µM (not active)

Compound: CCCCCOC(=O)C1=C(C)NC(=O)NC1c1ccc([N+](=O)[O-])cc1 (stereo not given)
- IC50 [8]: 9.26 µM (active)
- IC50 [9]: 14.9 µM (active)

Compound: COc1ccc(CCNc2cc(N3CCN(C(=O)c4ccccc4OC)CC3)ccc2[N+](=O)[O-])cc1OC
- AC50 [12]: 2.63 µM (active)
- AC50 [13]: 2.98 µM (active)
- AC50 [14]: 4.67 µM (active)
- AC50 [15]: 10.5 µM (active)

Compound: CCc1cc(=O)oc2cc(C)cc(OC(=O)c3ccco3)c12
- IC50 [11]: > 93.1 µM (not active)

Compound: CSc1nc(N2CCN(Cc3ccc4c(c3)OCO4)CC2)c2ccccc2n1
- AC50 [12]: 24.1 µM (active)
- AC50 [13]: > 70 µM (inactive)

Compound: CCN(CC)c1ccc(NC(=O)c2cnn(CC)c2)cc1
- AC50 [17]: 0.215 µM (active)
- IC50 [18]: 6.73 µM (active)
- AC50 [3]: inconclusive

Compound: O=C(CCCn1c(=O)[nH]c2cc(Cl)ccc2c1=O)NCC1CCCO1 (stereo not given)
- IC50 [11]: > 31 µM (not active)

Compound: Cc1cc2cc(CCNC(=O)c3ccc(S(=O)(=O)N4CCOCC4)cc3)c(O)nc2cc1C
- IC50 [5]: 11.1 µM (active)
